Measurements from paper PMC7827085 (Pharmaceutics, 2021).
Where two headings read alike, the source gives them in different places.

Assays:
[1] = target: T1, ABCB1/MDR1/Pgp (Homo sapiens, UniProt P08183); assay: in vitro; details: for Effect on ABCB1-dependent CaAM extrusion (in words): PLB-985/ABCB1 cells, test compounds 0.2–50 µM; for IC50 at 40 min: human
Experimental: (§1) For the ABC transporter assays, we used both cell-based and membrane-based functional assays. […] The respective transport activities were assayed by measuring the cellular fluorescence of the respective transported substrates Phengreen (ABCG2) and Calcein (ABCB1 and ABCC1).
(§2) The cells were kept on ice until the flow cytometry measurements. All experiments were performed in triplicate and in at least three biological parallels.
(§3) The cells were kept on ice until the flow cytometry measurements. All experiments were performed in triplicate and in at least three biological parallels. […] The PhenGreen (PG) or Calcein signal was detected in the BL1 channel (emission filter: 530/30 nm). Analysis of the data was carried out by the Attune Nxt Cytometer Software v3.1.2 (Thermo Fischer Scientific, Waltham, MA, USA). The inhibition of transporter activity was calculated by comparing the fluorescence in the presence of the test compound to that in the presence of a specific inhibitor providing maximum inhibition. […] Half-maximum inhibition (IC50) values were calculated by using the Origin2019 software (9.6.5.169, OriginLab Corporation, Northampton, MA, USA). […] In these experiments, we measured Hoechst dye extrusion in HeLa cells stably expressing eGFP and the ABCG2 variants driven by the same promoter—the transgenic cells generated by the Sleeping Beauty transposon system. […] For details, see Zámbó et al.). […] The maximum inhibition was defined for each variant as the fluorescence difference of the samples incubated with and without Ko143, respectively. […] Data analysis was performed using the Attune Nxt Cytometer Software v3.1.2. Two samples per condition and three biological replicates were examined in each experiment.
ABCB1 is a high-affinity active efflux transporter of the viability dye Calcein-AM (CaAM). […] Here, we applied this widely used cellular assay (see https://www.solvobiotech.com/services/categories/dye-efflux-assays) to characterize drug interactions of the applied compounds in intact PLB-985 cells, expressing high levels of the ABCB1 protein.

[2] = target: T2, ABCC1/MRP1 (Homo sapiens, UniProt P33527); assay: in vitro; details: for Effect on ABCC1-dependent CaAM extrusion (in words): HL60/ABCC1 cells; for IC50 at 40 min: human
Experimental: as §1, §2, §3
Therefore, we applied this assay to characterize the test drug interactions in intact HL60 cells expressing high levels of the ABCC1 protein.

[3] = target: T3, ABCG2/BCRP (Homo sapiens, UniProt Q9UNQ0); assay: in vitro; details: for Effect on ABCG2-dependent PG-DA extrusion (in words): PLB-985/ABCG2 cells; for IC50 at 40 min: human
T3 sequence (Q9UNQ0 1-655): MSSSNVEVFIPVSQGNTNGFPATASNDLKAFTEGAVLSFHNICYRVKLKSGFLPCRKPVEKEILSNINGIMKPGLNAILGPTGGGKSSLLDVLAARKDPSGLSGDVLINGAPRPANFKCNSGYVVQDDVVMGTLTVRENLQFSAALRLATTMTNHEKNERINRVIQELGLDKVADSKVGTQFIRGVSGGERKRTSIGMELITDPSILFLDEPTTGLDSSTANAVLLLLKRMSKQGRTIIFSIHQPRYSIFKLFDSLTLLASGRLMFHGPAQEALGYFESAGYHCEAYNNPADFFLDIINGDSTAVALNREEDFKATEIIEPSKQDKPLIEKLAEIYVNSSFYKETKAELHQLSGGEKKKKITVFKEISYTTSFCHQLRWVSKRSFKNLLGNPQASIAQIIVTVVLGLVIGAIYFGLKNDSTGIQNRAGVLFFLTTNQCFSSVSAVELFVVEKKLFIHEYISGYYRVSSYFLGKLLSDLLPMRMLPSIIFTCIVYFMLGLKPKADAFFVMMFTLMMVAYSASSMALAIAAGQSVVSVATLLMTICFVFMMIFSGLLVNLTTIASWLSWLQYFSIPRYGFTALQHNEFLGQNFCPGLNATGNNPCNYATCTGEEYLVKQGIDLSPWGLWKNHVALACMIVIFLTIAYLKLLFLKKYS
Experimental: as §1, §3
Here, we used both PhenGreen-SK diacetate and Hst dye for these measurements. The PhenGreen (PG) assay is a recently patented method applied for ensuring an efficient ABCG2 transport measurement, as the non-fluorescent PhenGreen diacetate (PG-DA) is actively extruded by ABCG2 and the cellular fluorescence is correlated with ABCG2 transport activity. Therefore, we applied this assay to characterize the test drug interactions in intact PLB-985 cells expressing high levels of the ABCG2 protein. […] ABCG2 inhibition by the test compounds was estimated by their relative (%) inhibition compared to full inhibition by Ko143.

[4] = target: T3, ABCG2/BCRP; assay: in vitro; details: for IC50 at 10 min: human
Experimental: These were employed at 37 °C for 10 min (ABCG2), 1 min (ABCB1), or 3 min (ABCC1), with or without 4 mM Mg-ATP, in a 50 μL final volume. The known reference inhibitors of the transporters (1 µM Ko143 for ABCG2, 1 µM Valspodar for ABCB1, and 200 µM Benzbromarone for ABCC1) served as controls. Each test compound was dissolved in DMSO and a 1 µL volume was added to the samples. After incubation, the samples were filtered and washed, and the substrates in the vesicles were dissolved in 10% SDS and transferred onto another plate. After the addition of a stabilizer, the fluorescence was measured in plate readers (Victor X3 and Enspire Perkin-Elmer, Waltham, MA, USA), while the activity of the radiolabeled substrate was measured by liquid scintillation counting (Perkin Elmer MicroBeta2 liquid scintillation counter, Perkin Elmer, Waltham, MA, USA). ABC transporter-related vesicular transport was calculated by subtracting uptake measured in the presence of Mg-AMP from the values measured in the presence of Mg-ATP.
The effects of the test compounds on ABCG2 activity were also measured in a vesicular transport assay by using inverted membrane vesicles prepared from HEK-293 cells expressing high levels of the ABCG2 transporter.

[5] = target: T1, ABCB1/MDR1/Pgp; details: HEK-293/ABCB1 membrane vesicles
[6] = target: T2, ABCC1/MRP1; details: Sf9/ABCC1 membrane vesicles
[7] = target: T2, ABCC1/MRP1; assay: in vitro

T1 sequence (P08183 whole entry): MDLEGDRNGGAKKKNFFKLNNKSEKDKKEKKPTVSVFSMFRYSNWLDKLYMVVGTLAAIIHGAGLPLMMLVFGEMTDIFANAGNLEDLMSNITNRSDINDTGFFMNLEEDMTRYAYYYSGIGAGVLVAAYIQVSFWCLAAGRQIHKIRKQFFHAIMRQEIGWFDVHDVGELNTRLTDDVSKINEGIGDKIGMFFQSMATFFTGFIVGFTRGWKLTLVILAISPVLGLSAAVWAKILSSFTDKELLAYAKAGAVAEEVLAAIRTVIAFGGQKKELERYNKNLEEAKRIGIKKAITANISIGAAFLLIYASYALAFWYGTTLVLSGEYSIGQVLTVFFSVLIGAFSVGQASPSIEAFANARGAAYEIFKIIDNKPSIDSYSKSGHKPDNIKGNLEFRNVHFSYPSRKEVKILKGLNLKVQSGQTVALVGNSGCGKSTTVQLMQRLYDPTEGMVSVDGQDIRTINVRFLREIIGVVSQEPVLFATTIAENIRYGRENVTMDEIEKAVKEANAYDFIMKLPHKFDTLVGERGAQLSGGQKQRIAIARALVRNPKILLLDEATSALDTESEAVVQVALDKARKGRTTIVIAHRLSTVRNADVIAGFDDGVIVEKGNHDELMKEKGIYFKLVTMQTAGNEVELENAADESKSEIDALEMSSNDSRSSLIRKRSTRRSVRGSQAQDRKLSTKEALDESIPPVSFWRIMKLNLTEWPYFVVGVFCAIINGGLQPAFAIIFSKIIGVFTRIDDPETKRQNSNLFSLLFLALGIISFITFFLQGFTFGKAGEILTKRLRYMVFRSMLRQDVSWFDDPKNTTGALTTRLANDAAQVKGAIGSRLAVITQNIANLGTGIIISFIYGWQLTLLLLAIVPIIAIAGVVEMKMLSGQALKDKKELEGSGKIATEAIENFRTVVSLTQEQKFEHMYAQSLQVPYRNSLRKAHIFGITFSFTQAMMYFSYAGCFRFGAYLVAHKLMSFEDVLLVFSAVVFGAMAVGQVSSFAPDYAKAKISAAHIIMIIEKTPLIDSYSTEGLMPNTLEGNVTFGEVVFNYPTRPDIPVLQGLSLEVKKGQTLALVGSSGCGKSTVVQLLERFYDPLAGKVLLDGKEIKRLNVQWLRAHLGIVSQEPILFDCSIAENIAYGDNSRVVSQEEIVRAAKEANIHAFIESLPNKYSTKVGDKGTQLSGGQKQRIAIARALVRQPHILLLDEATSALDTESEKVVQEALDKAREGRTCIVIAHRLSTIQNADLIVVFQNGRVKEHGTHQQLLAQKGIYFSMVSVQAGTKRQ
T2 sequence (P33527 whole entry): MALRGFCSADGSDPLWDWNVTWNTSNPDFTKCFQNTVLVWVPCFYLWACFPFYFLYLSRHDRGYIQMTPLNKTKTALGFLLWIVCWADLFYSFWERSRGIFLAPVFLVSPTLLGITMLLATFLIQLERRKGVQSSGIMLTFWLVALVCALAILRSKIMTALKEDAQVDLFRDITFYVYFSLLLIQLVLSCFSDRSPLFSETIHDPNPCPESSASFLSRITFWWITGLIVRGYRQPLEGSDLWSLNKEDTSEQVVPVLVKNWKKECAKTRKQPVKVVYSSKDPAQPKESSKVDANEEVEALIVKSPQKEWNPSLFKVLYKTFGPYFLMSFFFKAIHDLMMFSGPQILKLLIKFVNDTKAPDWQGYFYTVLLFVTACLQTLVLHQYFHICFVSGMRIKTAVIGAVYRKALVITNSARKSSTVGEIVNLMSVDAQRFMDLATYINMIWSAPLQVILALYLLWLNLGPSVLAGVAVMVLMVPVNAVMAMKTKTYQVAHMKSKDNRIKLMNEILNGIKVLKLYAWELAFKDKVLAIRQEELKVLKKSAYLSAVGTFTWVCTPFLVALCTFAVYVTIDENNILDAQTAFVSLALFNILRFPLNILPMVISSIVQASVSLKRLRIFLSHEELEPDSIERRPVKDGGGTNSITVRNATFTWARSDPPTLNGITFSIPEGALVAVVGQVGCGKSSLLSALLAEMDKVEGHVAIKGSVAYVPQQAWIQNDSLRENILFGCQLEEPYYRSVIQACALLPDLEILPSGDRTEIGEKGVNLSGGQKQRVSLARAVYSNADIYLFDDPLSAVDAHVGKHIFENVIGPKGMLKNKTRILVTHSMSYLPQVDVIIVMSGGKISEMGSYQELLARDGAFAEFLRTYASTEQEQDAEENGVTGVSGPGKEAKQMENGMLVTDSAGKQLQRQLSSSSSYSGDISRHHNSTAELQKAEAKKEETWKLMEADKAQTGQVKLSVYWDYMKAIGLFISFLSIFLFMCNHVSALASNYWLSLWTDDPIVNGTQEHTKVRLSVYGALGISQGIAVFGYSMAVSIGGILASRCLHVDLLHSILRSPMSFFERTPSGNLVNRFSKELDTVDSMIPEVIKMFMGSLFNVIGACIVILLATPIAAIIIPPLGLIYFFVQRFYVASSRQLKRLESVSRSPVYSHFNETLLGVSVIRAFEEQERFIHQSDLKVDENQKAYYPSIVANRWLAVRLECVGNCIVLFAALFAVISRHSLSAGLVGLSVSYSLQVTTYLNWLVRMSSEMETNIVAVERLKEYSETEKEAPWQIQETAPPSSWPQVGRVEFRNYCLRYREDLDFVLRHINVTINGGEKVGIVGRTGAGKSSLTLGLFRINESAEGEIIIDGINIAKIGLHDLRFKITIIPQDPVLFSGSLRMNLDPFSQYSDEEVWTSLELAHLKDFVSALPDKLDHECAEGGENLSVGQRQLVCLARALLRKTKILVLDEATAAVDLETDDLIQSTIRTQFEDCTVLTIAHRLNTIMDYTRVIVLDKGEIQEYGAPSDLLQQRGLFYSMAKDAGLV

SMILES	Effect on ABCB1-dependent CaAM extrusion (in words) [1]	IC50 at 40 min ([1]; intact PLB-985 cells expressing ABCB1, probe Calcein-AM, 0.25 µM) [µM]	Effect on ABCC1-dependent CaAM extrusion (in words) [2]	IC50 at 40 min ([2]; intact HL60 cells expressing ABCC1, probe Calcein-AM, 0.25 µM) [µM]	Effect on ABCG2-dependent PG-DA extrusion (in words) [3]	IC50 at 40 min ([3]; intact PLB-985 cells expressing ABCG2, probe PhenGreen-SK diacetate, 0.25 µM) [µM]	IC50 at 10 min ([4]; probe lucifer yellow, 5 µM) [µM]	Effect on ABCB1 ATP-dependent NMQ uptake (in words) [5]	Effect on ABCC1 vesicular ETGB transport (in words) [6]	IC50 at 3 min ([7]; inverted membrane vesicles from Sf9 cells expressing ABCC1, probe 3H-estradiol-17b-glucuronide (ETGB), 0.2 µM) [µM]	IC50 at 40 min [1] [µM]	IC50 at 40 min [3] [µM]	IC50 [4] [µM]	IC50 at 10 min [4] [µM]	Concentration above which ABCC1 vesicular ETGB transport was stimulated [6]	IC50 at 40 min [2] [µM]	Effect on ABCG2 ATP-dependent LY uptake (in words) ([4]; HEK-293/ABCG2 membrane vesicles)	IC50 at 3 min [7] [µM]
NC(=O)c1nc(F)c[nH]c1=O [favipiravir]	did not significantly inhibit	> 50	did not significantly inhibit	> 50	practically no effect	> 50	> 50	no inhibitory effect	practically no effect	> 50	–	–	–	–	–	–	–	–
CCC(CC)COC(=O)[C@H](C)N[P@](=O)(OC[C@H]1O[C@@](C#N)(c2ccc3c(N)ncnn23)[C@H](O)[C@@H]1O)Oc1ccccc1 [remdesivir]	did not significantly inhibit	–	did not significantly inhibit	–	–	–	–	–	significantly stimulated	–	> 50	> 50	> 20	> 50	above 25 μM	–	–	–
CCN(CCO)CCCC(C)Nc1ccnc2cc(Cl)ccc12 (centres unmarked) [hydroxychloroquine]	practically no effect	–	practically no effect	–	practically no effect	–	–	practically no effect	practically no effect	–	> 50	> 50	–	> 50	–	> 50	practically no effect	> 50
